Values quoted from earlier work as cited in publication PMC10967909, “Targeted Delivery of Abaloparatide to Spinal Fusion Site Accelerates Fusion Process in Rats” (Biomedicines, 2024).
Values belong to the molecule of their own block, whether it stands above or below them.

What was measured:
[1] = Description: A second question that logically arose is whether abaloparatide constituted the ideal payload for accelerating the fusion process. Although the PTH1R agonist, abaloparatide, has been well established as a bone anabolic agent, it is only clinically approved for treating osteoporosis. Most of abaloparatide’s applications have been limited to promoting systemic changes throughout the skeleton to reduce fracture risk.
PTH1R (UMR-106 cells) = target: T1, PTH1R (UMR-106 cells) (Rattus norvegicus, UniProt P25961); conditions: UMR 106 cells treated with drug for 1 h; Figure 2A legend, adapted; ref Low et al., 2022 [20]; read-out: EC50 (cAMP Glo assay)
T1 construct: evaluated in UMR-106 cells (ATCC, Manassas, VA, USA) which express PTH1R; host or cells: UMR-106 cells
T1 sequence (P25961 27-591): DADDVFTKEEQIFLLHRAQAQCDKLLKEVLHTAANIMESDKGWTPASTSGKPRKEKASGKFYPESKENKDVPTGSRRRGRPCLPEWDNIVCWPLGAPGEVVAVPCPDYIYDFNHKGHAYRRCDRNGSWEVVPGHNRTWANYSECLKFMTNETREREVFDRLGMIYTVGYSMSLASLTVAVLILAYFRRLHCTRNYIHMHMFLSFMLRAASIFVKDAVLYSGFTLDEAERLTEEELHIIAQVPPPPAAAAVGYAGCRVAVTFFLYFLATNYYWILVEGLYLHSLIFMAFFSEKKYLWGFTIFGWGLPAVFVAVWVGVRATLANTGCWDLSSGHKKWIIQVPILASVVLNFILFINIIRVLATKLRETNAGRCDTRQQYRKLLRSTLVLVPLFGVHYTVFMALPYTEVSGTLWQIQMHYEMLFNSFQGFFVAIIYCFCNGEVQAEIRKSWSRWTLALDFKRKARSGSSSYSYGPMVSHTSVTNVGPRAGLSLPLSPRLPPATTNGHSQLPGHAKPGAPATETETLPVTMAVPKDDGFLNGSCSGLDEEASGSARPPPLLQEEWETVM

EC50 (PTH1R (UMR-106 cells)): 0.66 nM
Molecule: abaloparatide
trabecular bone growth, clinical ([1]; clinically): promote trabecular bone growth
fracture repair efficacy of nontargeted abaloparatide ([1]; past efforts, ref not given): unsuccessful due to the lack of efficacy at systemically tolerable doses
trabecular bone growth, preclinical ([1]; preclinically): promote trabecular bone growth

EC50 (PTH1R (UMR-106 cells)): 0.48 nM
B1: Ab46-D-Glu20: variant of abaloparatide linked to a linear 20 mer of D-glutamic acid that naturally accumulates on exposed hydroxyapatite (protein)
chain: AVSEHQLLHDKGKSIQDLRRRELLEKLLAKLHTAEIRATSEVSPNSEEEEEEEEEEEEEEEEEEEE
modifications: The C-terminal 20 Glu are all D-residues (linear D-Glu20, described in the text as a 20 mer of D-glutamic acid); Ab46 is tak
